Data from US11400056B2, “Pharmaceutical composition comprising gallstone solubilizer for treatment of gallbladder disease” (SurgiNex Co., Ltd., priority 2016, dated 2022).

assay: Evaluation of gallstone dissolution, cholesterol stone; set-up: species or system human; details: 0.5 g gallstone + 0.5 ml agent (1 g compound in 1 ml DMSO), 37° C., 4 hours; (weight after dissolution)/(weight before dissolution)×100
Experimental: (§1) In order to evaluate the cholesterol stone and pigmented stone dissolution abilities of each of Examples 1 to 3 and Comparative Examples 1 and 2 prepared according to the Preparation Example above, cholesterol stones and pigmented stones removed during surgery of gallstone patients were obtained, thereby preparing gallstones. 0.5 g of each of the prepared gallstones was placed in an Eppendorf tube, and then 0.5 ml of each of the gallstone-dissolving agents of Examples 1 to 3 and Comparative Examples 1 and 2 was added to the Eppendorf tube containing the gallstone. Each tube was left to stand at 37° C. for 4 hours. Thereafter, the gallstone dissolution ability of each compound was evaluated by measuring the mass of the gallstones before and after dissolving the gallstone by treatment with each compound. The results of evaluating the abilities to dissolve cholesterol stones and pigmented stones are shown in Tables 2 and 3 below, respectively, and photographs before and after dissolving the gallstones are comparatively shown in FIGS. 1 and 2, respectively.
(§2) The gallstone dissolution ability was calculated using the following equation: Gallstone dissolution ability (%)=(weight of gallstone after dissolution)/(weight of gallstone before dissolution)×100

Compared with `COC(C)(C)C` [Comparative Example 1, Methyl tert-butyl ether, reference compound], `COC(=O)c1cccc(C)c1` [Example 2, methyl 3-methylbenzoate] is lower in “Dissolution ability (%) Cholesterol stone” value: 24.07% for the first, 10.00% for the second.

Going from `CCOC(=O)CC` [Comparative Example 2, ethyl propionate, reference compound] to `CC(=O)C1CC1` [Example 3, 1-cyclopropylethanone], the “Dissolution ability (%) Cholesterol stone” value falls from 48.66% to 28.57%.

For `COc1cccc(C)n1` [Example 1, 2-methoxy-6-methylpyridine], the “Dissolution ability (%) Cholesterol stone” value was 14.16%.

same assay, conditions: 37° C., 4 hours; Table 2 and FIG. 1

In the case of `COC(=O)c1cccc(C)c1` [Example 2, methyl 3-methylbenzoate], the “ability to dissolve the cholesterol stone (in words)” value is reported as “excellent ability to dissolve the cholesterol stone”.

assay: Evaluation of gallstone dissolution, pigmented stone; set-up: species or system human; details: 0.5 g gallstone + 0.5 ml agent (1 g compound in 1 ml DMSO), 37° C., 4 hours; (weight after dissolution)/(weight before dissolution)×100
Experimental: as §1, §2

Compared with `COc1cccc(C)n1` [Example 1, 2-methoxy-6-methylpyridine], `COC(=O)c1cccc(C)c1` [Example 2, methyl 3-methylbenzoate] is higher in “Dissolution ability (%) Pigmented stone” value: 52.92% for the first, 58.33% for the second.

With `CC(=O)C1CC1` [Example 3, 1-cyclopropylethanone] the “Dissolution ability (%) Pigmented stone” value was 60.00%.
